Experiments:
Format in all cases: in vivo
[1] = test system: transplanted mouse corneas; experiment: Mouse corneal transplant model: angiogenesis score, opacity score and graft survival by slit lamp microscope; settings: Group R3: ocular instillation three times daily
Procedure: (§1) Mouse corneal transplant models were prepared in accordance with a method described in a document (J Biol Methods 2015 2(3); e 27, hereinafter referred to as Document A) and used in an experiment. More specifically, allograft corneal transplantation was performed between 6 to 8-week-old donor male C57BL/6 mice and 6 to 8-week-old host male Balb/c mice.
(§2) The mice that had received corneal transplantation were divided into three groups (5 mice per group): ocular instillation of PBS twice daily (Group P: control group); ocular instillation of ripasudil twice daily (Group R2); and ocular instillation of ripasudil three times daily (Group R3).
(§3) The amount of PBS or ripasudil instilled into one eye per administration was 0.1 μL, and GLANATEC ophthalmic solution 0.4% was used as ripasudil.
(§4) After transplantation, the ocular instillation was performed every day until day 56, during which the angiogenesis score and opacity score (each of which was determined by a method described in. Document A) and the survival time of corneal grafts were evaluated with a slit lamp microscope every 7 days. On day 56 that was the final day of the experiment, in addition to the above evaluations, the expression levels of vascular endothelial cells (CD31), vascular endothelial cell growth factor (VEGF-A), and lymph vessels (Lyve-1) in the corneas were measured by real-time-PCR.

[2] = test system: CD31, VEGF-A and Lyve-1 in transplanted mouse corneas; experiment: Mouse corneal transplant model: expression levels in the corneas by real-time PCR on day 56; settings: Group R3: three times daily, vs Group P, p<0.001
Procedure: as §1, §2, §3, §4

[3] = test system: mouse cervical lymph node cells; experiment: Mouse corneal transplant model: cervical lymph node cells by flow cytometry (FACS) on day 14; settings: day 14 after transplantation
Procedure: (§5) Mouse corneal transplant models were prepared (surgery), divided into groups (Group P, Group R2, and Group R3), and treated (ocular instillation) in the same manner as in Example 1. On day 14 after transplantation, cervical lymph node cells were collected, and CD4^+ T cells, the expression levels of inflammatory cytokines IFNγ and IL-17, CD4^+CD25^+Foxp3^+ regulatory T cells (Tregs) involved in immune tolerance, […], and the expression level of Foxp3 (Mean Fluorescein Intensity, MFI) were measured by flow cytometry (FACS). Further, on day 14 after transplantation, the expression levels of foxp3, IL-10, and TGFβ1 in the corneas were also measured by a real-time PCR (qPCR).

[4] = test system: foxp3, IL-10 and TGFβ1 in transplanted mouse corneas; experiment: Mouse corneal transplant model: expression levels in the corneas by real-time PCR (qPCR) on day 14; settings: day 14 after corneal transplantation
Procedure: as §5

[5] = test system: transplanted human cornea; experiment: Effects on transplanted human cornea (case, angiogenesis in corneal graft); settings: after 3 weeks of ocular instillation
Procedure: Corneal transplantation was performed in a case of corneal perforation resulting from corneal herpes (person), and as a result, severe hyperemia was observed one month after surgery, and vascularization was observed also in a corneal graft. Peripheral anterior synechia was observed, and secondary glaucoma was observed, and therefore GLANATEC ophthalmic solution 0.4% was prescribed.

[6] = until day 56, vs Group P (PBS), p<0.05

C[C@H]1CNCCCN1S(=O)(=O)c1cccc2cncc(F)c12.Cl.O.O [ripasudil, 4-fluoro-5-{[(2S)-2-methyl-1,4-diazepan-1-yl]sulfonyl}isoquinoline monohydrochloride dihydrate]
transparency of transplanted cornea (photographs, FIG. 1) [1]: maintained until day 56
angiogenesis score [1, 6]: significantly lower
opacity score [1, 6]: significantly lower
survival time of corneal grafts [1, 6]: significantly prolonged
CD31 expression level in the corneas [2]: significantly lower
Lyve-1 expression level in the corneas [2]: significantly lower
VEGF-A expression level in the corneas [2]: significantly lower
Foxp3 expression level (MFI) in cervical lymph node cells ([3]; Group R2: twice daily): significantly increased
CD4+CD25+Foxp3+ regulatory T cells (Tregs) in cervical lymph node cells ([3]; Group R3: three times daily): significantly increased
CD4+CD25+Foxp3− regulatory T cells (exTregs) in cervical lymph node cells ([3]; Group R3: three times daily): significantly reduced
Foxp3 expression level (MFI) in cervical lymph node cells ([3]; Group R3: three times daily): significantly increased
inflammatory cytokine IFN-γ in cervical lymph node cells ([3]; Group R3: three times daily): significant reduction
expression of foxp3 in the corneas ([4]; Group R2: twice daily): significantly increased
expression of IL-10 in the corneas ([4]; Group R3: three times daily): significantly increased
expression of TGFβ1 in the corneas ([4]; Group R3: three times daily): significantly increased
expression of foxp3 in the corneas ([4]; Group R3: three times daily): significantly increased
numerical analysis of new blood vessels with Image J (FIG. 10) [5]: effect of suppressing angiogenesis

From patent US10537579B2, “Rejection reaction suppressant” (JUNTENDO EDUCATIONAL FOUNDATION, priority 2017, dated 2020)
